Values joined by “and” are separate entries in the source; they are usually repeats but may differ in a detail not shown here. Identical values can stand only once. Bounds are passed on as bounds.

The values below come from patent publication US20230064983A1 (priority 2020, published 2023).

The target of assay [1] is Ba/F3-EGFR-D770_N771insSVD cells (Homo sapiens, UniProt P00533, DUP768-770, cells depend on it). The assay is described as follows: Ba/F3 cell survival assay, EGFR D770_N771insSVD. To be noted: Cell Titer-Glo, 48 h, without IL-3; Table 4; read-out: BA/F3 (insSVD) IC50. It counts as cell-based.
Assay [2] has as its target T1, EGFR with insertion SVD between D770 and N771 (mutEGFR D770_N771insSVD) (Homo sapiens, UniProt P00533, DUP768-770).
T1 construct: amino acids R669 to A1210; made in house; host or cells: Sf9 insect cells (baculovirus)
The assay is described as follows: Exon20-Mutant-EGFR(D770_N771insSVD) kinase assay (TR-FRET). It counts as biochemical. The conditions noted are these: 2 mM ATP, Table 2. A general note: TR-FRET usually uses a lanthanide donor and a delayed reading to cut background.

The target in the next assay is Ba/F3-EGFR-WT cells (Homo sapiens, UniProt P00533). The assay is described as follows: Ba/F3 cell survival assay, wild type EGFR. It counts as cell-based. The conditions noted are these: Cell Titer-Glo, 48 h, with 10 ng/mL EGF; Table 4; read-out: BA/F3 (wild type) IC50.
Another assay addresses T2, Bub1 (Homo sapiens, UniProt O43683).
T2 construct: catalytic domain of human Bub1 (amino acids 704-1085); His6 (N); made in house; host or cells: insect cells (Hi5)
The assay is described as follows: Bub1 high ATP kinase assay (TR-FRET). It counts as biochemical. The conditions noted are these: Bub1 high ATP (2 mM) IC50, TR-FRET, 2 mM ATP; Table 3. From the text: Bub1 high ATP Kinase Assay
Bub1-inhibitory activity of compounds of the present invention at a high ATP concentration was quantified employing the Bub1 TR-FRET high ATP kinase assay as described in the following paragraphs.
N-terminally His6-tagged recombinant catalytic domain of human Bub1 (amino acids 704-1085), expressed in insect cells (Hi5) and purified by Ni-NTA affinity chromatography and subsequent size exclusion chromatography, was used as enzyme. As substrate for the kinase reaction the biotinylated peptide biotin-Ahx-[…] (C-terminus in amid form) was used which can be purchased e.g. form the company Biosyntan (Berlin, Germany).
Then the kinase reaction was started by the addition of 2 μl of a solution of Bub1 in assay buffer and the resulting mixture was incubated for a reaction time of 60 min at 22° C. The concentration of Bub1 was adjusted depending of the activity of the enzyme lot and was chosen appropriate to have the assay in the linear range, a typical concentration is about 200 ng/ml. The reaction was stopped by the addition of 3 μl of a solution of TR-FRET detection reagents (0.167 μM streptavidine-XL665 [Cisbio Bioassays, Codolet, France] and 1.67 nM anti-phosho-Serine antibody [Merck Millipore, cat. #35-002] and 0.67 nM LANCE EU-W1024 labeled anti-mouse IgG antibody [Perkin-Elmer, product no. AD0077, as an alternative a Terbium-cryptate-labeled anti-mouse IgG antibody from Cisbio Bioassays can be used]) in an aqueous EDTA-solution (83.3 mM EDTA, 0.2% (w/v) bovine serum albumin in 100 mM HEPES pH 7.5).
The resulting mixture was incubated 1 h at 22° C. to allow the formation of complex between the phosphorylated biotinylated peptide and the detection reagents. Subsequently the amount of phosphorylated substrate was evaluated by measurement of the resonance energy transfer from the Eu-chelate to the streptavidine-XL. Therefore, the fluorescence emissions at 620 nm and 665 nm after excitation at 350 nm was measured in a TR-FRET reader, e.g. a Pherastar or Pherastar FS (both from BMG Labtechnologies, Offenburg, Germany) or a Viewlux (Perkin-Elmer). The ratio of the emissions at 665 nm and at 622 nm was taken as the measure for the amount of phosphorylated substrate.

T2 sequence (O43683 704-1085): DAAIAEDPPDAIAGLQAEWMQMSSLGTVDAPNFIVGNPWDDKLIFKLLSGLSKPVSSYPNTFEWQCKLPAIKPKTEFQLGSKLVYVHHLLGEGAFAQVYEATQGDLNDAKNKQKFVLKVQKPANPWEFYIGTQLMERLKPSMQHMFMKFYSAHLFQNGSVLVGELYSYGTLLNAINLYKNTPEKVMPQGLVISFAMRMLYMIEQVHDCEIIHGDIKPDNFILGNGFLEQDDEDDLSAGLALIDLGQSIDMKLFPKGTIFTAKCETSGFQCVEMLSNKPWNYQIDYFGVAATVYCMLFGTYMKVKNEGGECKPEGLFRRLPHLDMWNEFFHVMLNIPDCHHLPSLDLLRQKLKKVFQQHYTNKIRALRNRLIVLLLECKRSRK
T1 sequence (P00533 other isoform, or with tags, fused parts or gaps DUP768-770): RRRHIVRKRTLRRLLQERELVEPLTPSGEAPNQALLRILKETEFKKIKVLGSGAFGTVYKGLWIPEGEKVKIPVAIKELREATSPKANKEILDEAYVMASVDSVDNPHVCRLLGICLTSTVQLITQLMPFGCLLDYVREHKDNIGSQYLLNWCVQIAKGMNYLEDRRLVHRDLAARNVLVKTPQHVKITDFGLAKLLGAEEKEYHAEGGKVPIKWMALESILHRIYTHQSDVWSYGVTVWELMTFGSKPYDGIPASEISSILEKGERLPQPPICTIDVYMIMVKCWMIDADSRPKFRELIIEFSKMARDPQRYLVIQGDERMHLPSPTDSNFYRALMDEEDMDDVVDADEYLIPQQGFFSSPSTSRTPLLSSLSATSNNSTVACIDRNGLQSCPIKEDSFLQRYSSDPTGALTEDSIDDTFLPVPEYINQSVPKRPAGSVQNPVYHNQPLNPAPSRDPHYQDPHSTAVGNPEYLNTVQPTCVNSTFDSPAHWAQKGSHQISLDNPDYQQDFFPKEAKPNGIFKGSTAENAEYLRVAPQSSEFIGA
Chain of Ba/F3-EGFR-D770_N771insSVD cells (P00533 with tags, fused parts or gaps DUP768-770): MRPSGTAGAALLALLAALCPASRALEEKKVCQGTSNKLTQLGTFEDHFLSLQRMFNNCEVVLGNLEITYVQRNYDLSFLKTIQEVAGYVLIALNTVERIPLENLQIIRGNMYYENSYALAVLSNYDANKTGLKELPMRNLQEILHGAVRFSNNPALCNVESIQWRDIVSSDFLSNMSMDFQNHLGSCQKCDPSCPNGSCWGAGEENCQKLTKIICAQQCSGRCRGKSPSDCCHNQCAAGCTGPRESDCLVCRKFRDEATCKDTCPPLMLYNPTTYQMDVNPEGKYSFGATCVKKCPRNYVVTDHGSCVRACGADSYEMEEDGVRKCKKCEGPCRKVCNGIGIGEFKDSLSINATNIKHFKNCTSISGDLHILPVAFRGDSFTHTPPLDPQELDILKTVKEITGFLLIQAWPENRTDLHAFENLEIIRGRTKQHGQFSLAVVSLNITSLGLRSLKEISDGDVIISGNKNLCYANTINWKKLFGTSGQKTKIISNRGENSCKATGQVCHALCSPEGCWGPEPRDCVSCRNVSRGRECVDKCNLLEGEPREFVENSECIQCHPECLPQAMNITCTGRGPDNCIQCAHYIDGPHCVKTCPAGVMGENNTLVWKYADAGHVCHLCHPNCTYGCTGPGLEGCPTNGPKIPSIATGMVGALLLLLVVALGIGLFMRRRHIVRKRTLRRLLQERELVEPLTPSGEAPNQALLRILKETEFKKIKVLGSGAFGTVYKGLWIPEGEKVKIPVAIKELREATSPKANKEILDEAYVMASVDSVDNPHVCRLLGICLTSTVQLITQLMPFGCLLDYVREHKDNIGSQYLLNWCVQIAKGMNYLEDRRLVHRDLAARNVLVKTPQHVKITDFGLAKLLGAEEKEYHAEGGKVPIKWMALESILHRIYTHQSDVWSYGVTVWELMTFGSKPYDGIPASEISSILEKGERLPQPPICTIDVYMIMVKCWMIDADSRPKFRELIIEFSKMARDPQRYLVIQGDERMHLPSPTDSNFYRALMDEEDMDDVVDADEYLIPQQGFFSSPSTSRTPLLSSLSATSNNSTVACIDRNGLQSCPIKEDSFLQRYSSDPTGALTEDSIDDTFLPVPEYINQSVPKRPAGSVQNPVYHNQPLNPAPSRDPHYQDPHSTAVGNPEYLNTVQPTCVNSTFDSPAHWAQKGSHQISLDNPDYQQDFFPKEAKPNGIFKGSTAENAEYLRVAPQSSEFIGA
Chain of Ba/F3-EGFR-WT cells (P00533 whole entry, looked up, change not shown): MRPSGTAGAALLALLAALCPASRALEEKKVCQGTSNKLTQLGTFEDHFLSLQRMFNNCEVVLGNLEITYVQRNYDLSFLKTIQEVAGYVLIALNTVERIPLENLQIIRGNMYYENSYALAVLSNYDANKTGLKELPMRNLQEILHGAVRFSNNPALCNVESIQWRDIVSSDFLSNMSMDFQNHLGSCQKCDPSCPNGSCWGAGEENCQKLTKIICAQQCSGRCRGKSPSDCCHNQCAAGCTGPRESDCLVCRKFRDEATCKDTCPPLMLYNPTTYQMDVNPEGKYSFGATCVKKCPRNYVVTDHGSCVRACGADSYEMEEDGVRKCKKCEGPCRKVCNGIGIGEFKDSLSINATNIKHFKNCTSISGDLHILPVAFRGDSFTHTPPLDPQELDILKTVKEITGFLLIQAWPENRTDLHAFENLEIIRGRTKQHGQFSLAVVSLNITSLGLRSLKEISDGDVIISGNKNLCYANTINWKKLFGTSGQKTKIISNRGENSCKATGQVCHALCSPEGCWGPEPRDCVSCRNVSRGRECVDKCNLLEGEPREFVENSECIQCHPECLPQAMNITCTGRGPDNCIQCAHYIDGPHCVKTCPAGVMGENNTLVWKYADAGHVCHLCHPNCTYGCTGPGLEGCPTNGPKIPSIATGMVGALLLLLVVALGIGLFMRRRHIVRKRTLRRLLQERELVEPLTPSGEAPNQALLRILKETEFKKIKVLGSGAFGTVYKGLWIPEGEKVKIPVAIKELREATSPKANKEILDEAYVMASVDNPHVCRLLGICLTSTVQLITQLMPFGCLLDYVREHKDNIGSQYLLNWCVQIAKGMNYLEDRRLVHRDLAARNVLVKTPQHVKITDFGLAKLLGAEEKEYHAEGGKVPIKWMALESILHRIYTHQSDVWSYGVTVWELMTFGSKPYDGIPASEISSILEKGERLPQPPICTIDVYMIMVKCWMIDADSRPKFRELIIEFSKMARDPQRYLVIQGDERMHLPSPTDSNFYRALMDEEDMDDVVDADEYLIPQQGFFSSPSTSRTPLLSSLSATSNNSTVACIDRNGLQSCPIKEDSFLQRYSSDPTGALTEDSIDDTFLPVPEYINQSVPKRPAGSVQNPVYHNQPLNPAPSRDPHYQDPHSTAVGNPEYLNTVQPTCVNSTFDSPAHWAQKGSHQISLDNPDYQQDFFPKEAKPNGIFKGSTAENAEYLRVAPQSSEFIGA

Broadly, the IC50 is the concentration needed to halve the response being measured. With `COc1c(Cl)cccc1Nc1c(-c2ccncc2OCC2CCCCO2)[nH]c2c1C(=O)N[C@H](C)C2` (single isomer, unassigned) [Example 29], the GI50 in assay [1] was found to be 11 nM; on Ba/F3-EGFR-WT cells, 288 nM. The “mutEGFR (D770_N771insSVD) kinase assay IC50” value (“mutEGFR” below) in assay [2] was found to be 0.176 nM. Further, the IC50 against Bub1 was 2390 nM.
In the same order, the values of `COc1c(Cl)cccc1Nc1c(-c2ccncc2OC[C@@H]2CCCO2)[nH]c2c1C(=O)NCC2C` (single isomer, unassigned) [Example 31] are 125 nM, 2770 nM, 0.119 nM and more than 20000 nM.
For `COc1c(Cl)cccc1Nc1c(-c2ccncc2OCC2COCCO2)[nH]c2c1C(=O)NCC2C` (single isomer, unassigned) [Example 35, 3-(3-chloro-2-methoxy-anilino)-2-[3-(1,4-dioxan-2-ylmethoxy)-4-pyridyl]-7-methyl-1,5,6,7-tetrahydropyrrolo[3,2-c]pyridin-4-one] the same measures were 54.1 nM, 811 nM, 0.272 nM and 12400 nM.
For `COc1c(Cl)cccc1Nc1c(-c2ccncc2OCC2COCCO2)[nH]c2c1C(=O)NCC2C` (single isomer, unassigned) [Example 36, 3-(3-chloro-2-methoxy-anilino)-2-[3-(1,4-dioxan-2-ylmethoxy)-4-pyridyl]-7-methyl-1,5,6,7-tetrahydropyrrolo[3,2-c]pyridin-4-one] the same measures were 75.3 nM, 963 nM, 0.331 nM and 4900 nM.
Consider `COc1c(Cl)cccc1Nc1c(-c2ccncc2OCC2COCCO2)[nH]c2c1C(=O)NCC2C` (single isomer, unassigned) [Example 37, 3-(3-chloro-2-methoxy-anilino)-2-[3-(1,4-dioxan-2-ylmethoxy)-4-pyridyl]-7-methyl-1,5,6,7-tetrahydropyrrolo[3,2-c]pyridin-4-one], for which the GI50 in assay [1] came to 149 nM; on Ba/F3-EGFR-WT cells it was 1090 nM. The “mutEGFR” value in assay [2] is 0.318 nM. This compound registered a concentration for half-maximal inhibition (IC50) against Bub1 of 2870 nM.
Turning to `COc1c(Cl)cccc1Nc1c(-c2ccncc2OC[C@@H]2CCCO2)[nH]c2c1C(=O)NC(C(F)(F)F)C2` (single isomer, unassigned) [Example 39], the GI50 is 786 nM and > 1000 nM in assay [1]; 4120 nM at Ba/F3-EGFR-WT cells. Moreover, the “mutEGFR” value in assay [2] came out at 18.8 nM. At Bub1, this compound showed a concentration for half-maximal inhibition (IC50) of more than 20000 nM.
As to `COc1c(Cl)cccc1Nc1c(-c2ccncc2OC[C@@H]2CCCO2)[nH]c2c1C(=O)NC(C(F)(F)F)C2` (single isomer, unassigned) [Example 40], the GI50 in assay [1] is 64.3 nM; on Ba/F3-EGFR-WT cells, 480 nM. In assay [2], the “mutEGFR” value is 0.0981 nM and <0.0725 nM. This compound also registered an IC50 on Bub1 of 399 nM.
In the case of `COCC(C)Oc1cnccc1-c1[nH]c2c(c1Nc1cccc(Cl)c1OC)C(=O)N[C@H](C)C2` (single isomer, unassigned) [Example 42], the GI50 in assay [1] is 15.3 nM; on Ba/F3-EGFR-WT cells it was 531 nM. In addition, the “mutEGFR” value in assay [2] worked out at 0.213 nM. Besides, the 50% inhibitory concentration (IC50) on Bub1 is 8810 nM.
For `COCC(C)Oc1cnccc1-c1[nH]c2c(c1Nc1cccc(Cl)c1OC)C(=O)N[C@H](C)C2` (single isomer, unassigned) [Example 43] the same measures were 219 nM, 1860 nM, 0.418 nM and more than 20000 nM.
For `COc1c(Cl)cccc1Nc1c(-c2ccncc2OCC2CCCCO2)[nH]c2c1C(=O)NCC2C` (single isomer, unassigned) [Example 45, 3-(3-chloro-2-methoxy-anilino)-7-methyl-2-[3-(tetrahydropyran-2-ylmethoxy)-4-pyridyl]-1,5,6,7-tetrahydropyrrolo[3,2-c]pyridin-4-one] the same measures were 47.3 nM, 840 nM, 0.391 nM and more than 20000 nM.
In the same order, the values of `COc1c(Cl)cccc1Nc1c(-c2ccncc2OCC2CCCCO2)[nH]c2c1C(=O)NCC2C` (single isomer, unassigned) [Example 46, 3-(3-chloro-2-methoxy-anilino)-7-methyl-2-[3-(tetrahydropyran-2-ylmethoxy)-4-pyridyl]-1,5,6,7-tetrahydropyrrolo[3,2-c]pyridin-4-one] are 125 nM, 2750 nM, 1.17 nM and more than 20000 nM.
For `COc1c(Cl)cccc1Nc1c(-c2ccncc2OCC2CCCCO2)[nH]c2c1C(=O)NCC2C` (single isomer, unassigned) [Example 47, 3-(3-chloro-2-methoxy-anilino)-7-methyl-2-[3-(tetrahydropyran-2-ylmethoxy)-4-pyridyl]-1,5,6,7-tetrahydropyrrolo[3,2-c]pyridin-4-one], the GI50 in assay [1] is 106 nM; on Ba/F3-EGFR-WT cells it was 1990 nM. Also, in assay [2], the “mutEGFR” value worked out at 0.667 nM. The compound also returned an IC50 against Bub1 of 7600 nM.
In the same order, the values of `COc1c(Cl)cccc1Nc1c(-c2ccncc2OCC2CCCCO2)[nH]c2c1C(=O)NCC2C` (single isomer, unassigned) [Example 48, 3-(3-chloro-2-methoxy-anilino)-7-methyl-2-[3-(tetrahydropyran-2-ylmethoxy)-4-pyridyl]-1,5,6,7-tetrahydropyrrolo[3,2-c]pyridin-4-one] are 25.7 nM, 611 nM, 0.227 nM and 9130 nM.
In the same order, the values of `COCC(C)Oc1cnccc1-c1[nH]c2c(c1Nc1cccc(Cl)c1OC)C(=O)N[C@@H]1CCC[C@H]21` (single isomer, unassigned) [Example 50] are 349 nM, 1650 nM, 0.393 nM and more than 20000 nM.
Regarding `COc1c(Cl)cccc1Nc1c(-c2ccncc2OCC2COCCO2)[nH]c2c1C(=O)N[C@@H]1CCC[C@H]21` (single isomer, unassigned) [Example 53], the GI50 in assay [1] came out at 34.9 nM; at Ba/F3-EGFR-WT cells it was 712 nM. In assay [2], the “mutEGFR” value was 0.282 nM. Besides, half-maximal inhibition at Bub1 (IC50) was put at 14500 nM.
In the same order, the values of `COc1c(Cl)cccc1Nc1c(-c2ccncc2OCC2COCCO2)[nH]c2c1C(=O)N[C@@H]1CCC[C@H]21` (single isomer, unassigned) [Example 54] are 42.4 nM, 675 nM, 0.198 nM and 6190 nM.
For `Cc1c(Cl)cccc1Nc1c(-c2ccncc2OC[C@@H]2CCCO2)[nH]c2c1C(=O)NCC2C` (single isomer, unassigned) [Example 59] the same measures were 41.9 nM, 609 nM, 0.285 nM and 16400 nM.
On to `Cc1c(Cl)cccc1Nc1c(-c2ccncc2OC[C@@H]2CCCO2)[nH]c2c1C(=O)NCC2C` (single isomer, unassigned) [Example 60], for which the GI50 in assay [1] came to 175 nM; on Ba/F3-EGFR-WT cells, 1070 nM. Moreover, the “mutEGFR” value in assay [2] turned out to be 0.603 nM. Also, on Bub1, 1620 nM corresponded to half-maximal inhibition (IC50).
For `Cc1c(Cl)cccc1Nc1c(-c2ccncc2OCC2COCCO2)[nH]c2c1C(=O)NCC2C` (single isomer, unassigned) [Example 68, 3-(3-chloro-2-methyl-anilino)-2-[3-(1,4-dioxan-2-ylmethoxy)-4-pyridyl]-7-methyl-1,5,6,7-tetrahydropyrrolo[3,2-c]pyridin-4-one] the same measures were 63.7 nM, 1380 nM, 0.3 nM and 5130 nM.
